Patent US20130158007A1 (KEMPHARM, INC., priority 2010, published 2013)
Structures can show the parent of a compound that is named as a salt. One block for each compound: values may come before it.

Assays:
M3 muscarinic receptor = M3 muscarinic receptor (Homo sapiens, UniProt P20309); conditions: cited from earlier work
M1 muscarinic receptor = biological target: T1, M1 muscarinic receptor (Homo sapiens, UniProt P11229); conditions: cited from earlier work
T1 sequence (P11229 1-460): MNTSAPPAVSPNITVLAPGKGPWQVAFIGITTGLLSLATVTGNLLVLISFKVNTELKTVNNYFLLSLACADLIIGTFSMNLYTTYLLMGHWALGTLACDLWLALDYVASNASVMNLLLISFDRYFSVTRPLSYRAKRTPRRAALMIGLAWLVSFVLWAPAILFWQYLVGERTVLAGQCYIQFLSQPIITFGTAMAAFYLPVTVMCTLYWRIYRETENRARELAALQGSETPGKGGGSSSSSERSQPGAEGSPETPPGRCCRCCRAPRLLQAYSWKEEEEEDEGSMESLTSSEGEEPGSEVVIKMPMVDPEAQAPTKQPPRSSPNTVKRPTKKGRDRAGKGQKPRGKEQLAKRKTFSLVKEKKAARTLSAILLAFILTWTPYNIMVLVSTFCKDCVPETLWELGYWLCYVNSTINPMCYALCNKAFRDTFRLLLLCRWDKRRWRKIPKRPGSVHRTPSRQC

[1] = biological target: serotonin 5-HT2B receptor (Homo sapiens, UniProt P41595); conditions: cited from earlier work
5-HT2A receptor = 5-HT2A receptor (Homo sapiens, UniProt P28223); conditions: cited from earlier work
M5 muscarinic receptor = biological target: T2, M5 muscarinic receptor (Homo sapiens, UniProt P08912); conditions: cited from earlier work
T2 sequence (P08912 1-532): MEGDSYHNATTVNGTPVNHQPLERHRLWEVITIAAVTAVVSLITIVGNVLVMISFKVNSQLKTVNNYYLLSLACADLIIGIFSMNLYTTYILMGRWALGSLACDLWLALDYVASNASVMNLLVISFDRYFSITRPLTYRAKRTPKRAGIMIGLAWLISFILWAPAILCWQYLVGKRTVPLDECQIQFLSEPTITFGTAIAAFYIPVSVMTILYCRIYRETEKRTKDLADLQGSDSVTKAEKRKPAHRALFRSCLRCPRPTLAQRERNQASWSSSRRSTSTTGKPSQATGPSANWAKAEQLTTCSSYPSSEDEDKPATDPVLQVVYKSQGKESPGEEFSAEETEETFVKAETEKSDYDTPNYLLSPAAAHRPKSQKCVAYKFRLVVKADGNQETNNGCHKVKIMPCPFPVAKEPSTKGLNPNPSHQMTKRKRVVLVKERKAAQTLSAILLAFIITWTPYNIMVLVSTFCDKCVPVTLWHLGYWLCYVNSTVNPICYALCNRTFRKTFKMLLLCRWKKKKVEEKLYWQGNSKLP

serotonin 5-HT7 receptor = serotonin 5-HT7 receptor (Homo sapiens, UniProt P34969); conditions: cited from earlier work
α1B-adrenergic receptor = biological target: T3, α1B-adrenergic receptor (Homo sapiens, UniProt P35368); conditions: cited from earlier work
T3 sequence (P35368 1-520): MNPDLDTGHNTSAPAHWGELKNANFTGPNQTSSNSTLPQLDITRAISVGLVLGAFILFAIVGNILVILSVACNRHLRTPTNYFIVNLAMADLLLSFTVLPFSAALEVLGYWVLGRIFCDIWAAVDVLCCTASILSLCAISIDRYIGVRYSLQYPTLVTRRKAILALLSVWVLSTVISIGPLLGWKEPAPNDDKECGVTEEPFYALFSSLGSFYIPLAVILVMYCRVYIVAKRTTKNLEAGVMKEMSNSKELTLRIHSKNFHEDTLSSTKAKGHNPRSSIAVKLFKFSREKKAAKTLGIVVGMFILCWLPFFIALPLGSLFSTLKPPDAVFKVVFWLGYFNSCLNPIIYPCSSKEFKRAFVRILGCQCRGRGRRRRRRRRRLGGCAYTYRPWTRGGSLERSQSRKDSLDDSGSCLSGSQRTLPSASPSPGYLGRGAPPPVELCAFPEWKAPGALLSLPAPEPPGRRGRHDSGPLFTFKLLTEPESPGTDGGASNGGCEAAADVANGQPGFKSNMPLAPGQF

[2] = biological target: T4, serotonin 5-HT1A receptor (Homo sapiens, UniProt P08908); conditions: cited from earlier work
T4 sequence (P08908 1-422): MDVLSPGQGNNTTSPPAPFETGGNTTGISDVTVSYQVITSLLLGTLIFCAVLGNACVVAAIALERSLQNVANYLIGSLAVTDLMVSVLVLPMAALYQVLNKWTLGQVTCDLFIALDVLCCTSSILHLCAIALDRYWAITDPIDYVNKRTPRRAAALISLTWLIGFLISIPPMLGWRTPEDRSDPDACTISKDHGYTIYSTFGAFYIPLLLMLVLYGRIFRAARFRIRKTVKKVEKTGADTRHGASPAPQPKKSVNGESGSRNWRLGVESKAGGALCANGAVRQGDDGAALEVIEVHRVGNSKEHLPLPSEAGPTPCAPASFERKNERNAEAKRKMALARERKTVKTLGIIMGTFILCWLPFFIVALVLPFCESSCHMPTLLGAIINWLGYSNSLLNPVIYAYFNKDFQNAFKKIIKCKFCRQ

[3] = biological target: norepinephrine reuptake transporter (NET) (Homo sapiens, UniProt P23975); conditions: cited from earlier work
histamine H1 receptor = histamine H1 receptor (Homo sapiens, UniProt P35367); conditions: cited from earlier work
[4] = biological target: serotonin 5-HT1E receptor (Homo sapiens, UniProt P28566); conditions: cited from earlier work
5-HT1A receptor = biological target: T5, 5-HT1A receptor (Homo sapiens, UniProt P08908); conditions: relative to quetiapine; cited from earlier work
T5 sequence (P08908 1-422): T4 sequence (P08908 1-422)

[5] = oral solution
a1-adrenergic receptors = conditions: cited from earlier work
α2-adrenergic receptors = conditions: cited from earlier work
leptin = conditions: chronic oral administration for 6 weeks; cited from earlier work
dopaminergic D2 receptor = dopaminergic D2 receptor (Homo sapiens, UniProt P14416); conditions: cerebral receptors; cited from earlier work
dopaminergic D1 receptor = dopaminergic D1 receptor (Homo sapiens, UniProt P21728); conditions: cerebral receptors; cited from earlier work
[6] = cited from earlier work
[7] = clinical trials; cited from earlier work
[8] = in vivo; cited from earlier work
[9] = patients, cited from earlier work

Sequence of norepinephrine reuptake transporter (NET) (P23975 whole entry): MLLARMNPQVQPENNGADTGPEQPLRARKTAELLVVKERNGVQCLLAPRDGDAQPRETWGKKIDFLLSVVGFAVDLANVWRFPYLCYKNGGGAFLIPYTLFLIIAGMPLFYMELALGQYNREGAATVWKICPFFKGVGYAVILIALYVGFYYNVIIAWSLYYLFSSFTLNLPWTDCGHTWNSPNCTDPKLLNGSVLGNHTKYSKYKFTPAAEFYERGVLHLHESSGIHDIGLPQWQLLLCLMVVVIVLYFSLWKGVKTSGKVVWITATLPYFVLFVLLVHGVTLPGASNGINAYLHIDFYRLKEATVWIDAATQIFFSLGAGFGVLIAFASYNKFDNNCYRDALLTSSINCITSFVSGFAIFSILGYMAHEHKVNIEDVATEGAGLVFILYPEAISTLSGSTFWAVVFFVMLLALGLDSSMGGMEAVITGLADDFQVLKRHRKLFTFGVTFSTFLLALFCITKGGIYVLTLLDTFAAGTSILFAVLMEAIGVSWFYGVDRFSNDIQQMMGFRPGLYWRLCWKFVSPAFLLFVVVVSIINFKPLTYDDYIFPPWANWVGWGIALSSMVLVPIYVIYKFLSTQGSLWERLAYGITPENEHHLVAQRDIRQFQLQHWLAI
Sequence of serotonin 5-HT7 receptor (P34969 whole entry): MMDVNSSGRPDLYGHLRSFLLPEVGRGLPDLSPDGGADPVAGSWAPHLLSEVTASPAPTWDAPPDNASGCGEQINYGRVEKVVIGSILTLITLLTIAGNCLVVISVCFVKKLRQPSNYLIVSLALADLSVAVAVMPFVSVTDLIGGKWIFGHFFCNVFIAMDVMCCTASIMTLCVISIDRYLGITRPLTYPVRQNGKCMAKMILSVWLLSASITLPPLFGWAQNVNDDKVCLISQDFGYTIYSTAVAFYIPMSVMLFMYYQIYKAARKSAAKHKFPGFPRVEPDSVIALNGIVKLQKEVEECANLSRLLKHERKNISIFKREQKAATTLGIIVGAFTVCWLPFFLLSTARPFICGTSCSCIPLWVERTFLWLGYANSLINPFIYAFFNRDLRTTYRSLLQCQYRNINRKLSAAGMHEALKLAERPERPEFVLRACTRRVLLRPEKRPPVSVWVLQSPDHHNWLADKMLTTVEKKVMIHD
Sequence of serotonin 5-HT1E receptor (P28566 whole entry): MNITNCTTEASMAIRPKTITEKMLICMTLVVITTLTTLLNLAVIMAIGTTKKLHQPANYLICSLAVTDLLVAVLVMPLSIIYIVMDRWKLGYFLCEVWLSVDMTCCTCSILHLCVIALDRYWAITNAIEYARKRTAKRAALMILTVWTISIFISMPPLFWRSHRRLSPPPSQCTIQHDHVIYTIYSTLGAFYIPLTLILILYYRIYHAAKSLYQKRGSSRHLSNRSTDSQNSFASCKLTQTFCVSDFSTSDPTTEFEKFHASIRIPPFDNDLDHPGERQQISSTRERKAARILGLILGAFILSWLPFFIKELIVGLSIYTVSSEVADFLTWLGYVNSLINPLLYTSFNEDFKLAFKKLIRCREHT
Sequence of serotonin 5-HT2B receptor (P41595 whole entry): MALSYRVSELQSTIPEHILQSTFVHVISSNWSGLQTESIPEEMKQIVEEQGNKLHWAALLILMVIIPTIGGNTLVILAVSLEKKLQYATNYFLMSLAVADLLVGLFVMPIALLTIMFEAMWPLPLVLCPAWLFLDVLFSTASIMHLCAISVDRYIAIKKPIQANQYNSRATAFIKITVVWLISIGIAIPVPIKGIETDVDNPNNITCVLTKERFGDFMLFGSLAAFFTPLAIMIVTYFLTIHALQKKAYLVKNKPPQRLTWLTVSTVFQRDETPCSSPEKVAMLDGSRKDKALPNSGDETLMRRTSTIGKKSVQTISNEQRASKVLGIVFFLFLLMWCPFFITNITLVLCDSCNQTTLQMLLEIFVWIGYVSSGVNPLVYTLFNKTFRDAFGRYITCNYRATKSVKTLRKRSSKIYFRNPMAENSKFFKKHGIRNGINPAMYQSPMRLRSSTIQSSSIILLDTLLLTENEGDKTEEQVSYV
Sequence of dopaminergic D2 receptor (P14416 whole entry): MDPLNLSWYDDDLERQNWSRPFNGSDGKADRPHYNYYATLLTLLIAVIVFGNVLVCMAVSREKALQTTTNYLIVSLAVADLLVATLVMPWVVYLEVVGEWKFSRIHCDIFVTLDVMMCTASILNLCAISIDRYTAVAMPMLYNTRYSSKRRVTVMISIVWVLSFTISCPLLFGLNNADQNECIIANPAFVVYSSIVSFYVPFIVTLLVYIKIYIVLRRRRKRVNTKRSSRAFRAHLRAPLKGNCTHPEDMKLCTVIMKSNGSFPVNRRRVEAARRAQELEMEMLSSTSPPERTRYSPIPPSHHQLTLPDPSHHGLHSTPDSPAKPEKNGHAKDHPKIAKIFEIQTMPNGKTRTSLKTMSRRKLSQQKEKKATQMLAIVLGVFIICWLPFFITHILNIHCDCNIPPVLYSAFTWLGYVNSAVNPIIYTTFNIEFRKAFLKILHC
Sequence of M3 muscarinic receptor (P20309 whole entry): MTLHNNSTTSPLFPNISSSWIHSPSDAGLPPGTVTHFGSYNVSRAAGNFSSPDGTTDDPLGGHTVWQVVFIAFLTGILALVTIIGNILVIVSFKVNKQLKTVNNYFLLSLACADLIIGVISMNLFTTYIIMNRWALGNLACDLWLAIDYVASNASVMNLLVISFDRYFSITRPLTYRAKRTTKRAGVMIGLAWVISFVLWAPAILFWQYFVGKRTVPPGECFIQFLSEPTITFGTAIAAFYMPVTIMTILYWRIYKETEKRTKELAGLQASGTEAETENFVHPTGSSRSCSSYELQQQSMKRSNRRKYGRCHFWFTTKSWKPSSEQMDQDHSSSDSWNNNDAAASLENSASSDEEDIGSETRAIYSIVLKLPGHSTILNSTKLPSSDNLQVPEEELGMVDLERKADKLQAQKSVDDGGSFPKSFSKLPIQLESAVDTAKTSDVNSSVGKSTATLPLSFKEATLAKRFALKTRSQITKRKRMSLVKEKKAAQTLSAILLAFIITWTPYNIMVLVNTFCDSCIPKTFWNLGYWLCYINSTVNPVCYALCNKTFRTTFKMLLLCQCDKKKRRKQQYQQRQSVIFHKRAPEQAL
Sequence of dopaminergic D1 receptor (P21728 whole entry): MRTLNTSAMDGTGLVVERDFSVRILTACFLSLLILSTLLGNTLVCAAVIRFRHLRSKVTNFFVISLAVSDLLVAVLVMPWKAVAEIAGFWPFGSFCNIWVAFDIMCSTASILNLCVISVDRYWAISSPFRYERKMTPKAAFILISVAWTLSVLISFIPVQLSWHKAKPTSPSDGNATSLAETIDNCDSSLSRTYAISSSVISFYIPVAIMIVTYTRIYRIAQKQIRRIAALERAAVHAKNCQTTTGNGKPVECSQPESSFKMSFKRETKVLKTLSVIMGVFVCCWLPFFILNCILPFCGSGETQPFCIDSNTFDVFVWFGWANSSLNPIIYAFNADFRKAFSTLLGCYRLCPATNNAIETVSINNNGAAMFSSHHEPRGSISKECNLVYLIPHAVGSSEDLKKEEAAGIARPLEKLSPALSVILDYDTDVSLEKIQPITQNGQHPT
Sequence of histamine H1 receptor (P35367 whole entry, species assumed): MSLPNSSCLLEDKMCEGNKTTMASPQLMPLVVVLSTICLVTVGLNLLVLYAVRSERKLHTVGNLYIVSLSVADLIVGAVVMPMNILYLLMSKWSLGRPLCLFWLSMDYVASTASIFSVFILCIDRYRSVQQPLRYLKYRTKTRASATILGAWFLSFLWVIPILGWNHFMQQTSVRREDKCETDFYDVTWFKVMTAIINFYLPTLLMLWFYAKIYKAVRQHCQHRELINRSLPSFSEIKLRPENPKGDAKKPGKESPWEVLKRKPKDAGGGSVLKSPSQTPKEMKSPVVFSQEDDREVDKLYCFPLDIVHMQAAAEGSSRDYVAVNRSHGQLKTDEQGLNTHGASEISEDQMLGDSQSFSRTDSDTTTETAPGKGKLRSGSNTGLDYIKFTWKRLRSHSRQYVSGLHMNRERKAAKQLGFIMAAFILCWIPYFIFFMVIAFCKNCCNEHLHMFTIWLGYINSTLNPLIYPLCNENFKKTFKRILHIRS
Sequence of 5-HT2A receptor (P28223 whole entry): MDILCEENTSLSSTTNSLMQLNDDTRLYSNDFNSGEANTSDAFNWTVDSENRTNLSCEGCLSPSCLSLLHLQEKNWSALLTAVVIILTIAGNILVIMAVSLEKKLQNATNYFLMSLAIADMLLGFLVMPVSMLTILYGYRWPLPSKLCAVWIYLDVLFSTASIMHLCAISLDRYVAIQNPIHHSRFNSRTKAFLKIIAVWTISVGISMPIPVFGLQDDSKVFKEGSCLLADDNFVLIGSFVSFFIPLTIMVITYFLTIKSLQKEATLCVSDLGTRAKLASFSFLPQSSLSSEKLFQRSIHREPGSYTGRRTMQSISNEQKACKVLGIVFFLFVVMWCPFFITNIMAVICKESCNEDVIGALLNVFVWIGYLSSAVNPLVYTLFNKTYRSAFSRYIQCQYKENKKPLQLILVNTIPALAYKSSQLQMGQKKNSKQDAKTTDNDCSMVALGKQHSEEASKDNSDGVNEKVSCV

Compound: c1ccc2c(c1)N=C(N1CCNCC1)c1ccccc1S2 [N-desalkyl-quetiapine]
affinity (M3 muscarinic receptor): moderate affinities | affinity (M1 muscarinic receptor): moderate affinities | affinity [1]: moderate affinities | affinity (5-HT2A receptor): moderate affinities | affinity (M5 muscarinic receptor): moderate affinities | affinity (serotonin 5-HT7 receptor): moderate affinities | affinity (α1B-adrenergic receptor): moderate affinities | affinity [2]: moderate affinities | affinity [3]: moderate affinities | avidity for inhibiting human NET, fold higher than quetiapine ([3]; relative to quetiapine): about 100 fold | affinity (histamine H1 receptor): high affinity | affinity [4]: moderate affinities | potency at the 5-HT1A receptor, fold more potent than quetiapine (5-HT1A receptor): 10 fold

solubility for dosing via oral gavage in rats [5]: not soluble enough
Compound: OCCOCCN1CCN(C2=Nc3ccccc3Sc3ccccc32)CC1 [quetiapine fumarate]

Compound: OCCOCCN1CCN(C2=Nc3ccccc3Sc3ccccc32)CC1 [quetiapine, 2-(2-(4-(dibenzo[b,f][1,4]thiazepin-11-yl)piperazin-1-yl)ethoxy)ethanol]
affinity (a1-adrenergic receptors): moderate affinity | affinity (α2-adrenergic receptors): moderate affinity | increase in leptin release (leptin): about 37% | affinity (dopaminergic D2 receptor): major affinity | affinity (dopaminergic D1 receptor): major affinity | terminal half-life time for elimination ([6]; in vivo): about 7 hours | Absolute bioavailability ([6]; oral): 9% | prolongation of the QT interval [7]: small insignificant prolongations

Compound: CCCC(CCC)C(=O)O [valproic acid, 2-propylpentanoic acid]
response rate in bipolar depression [8]: ~30% | time to response ([9]; acute mania): 1-2 weeks | response rate in acute mania ([9]; placebo effect 20-30%): around 50%
